In test [1] the target is T1, hGSTM1-1 (Homo sapiens, UniProt P09488).
T1 sequence (P09488 1-218): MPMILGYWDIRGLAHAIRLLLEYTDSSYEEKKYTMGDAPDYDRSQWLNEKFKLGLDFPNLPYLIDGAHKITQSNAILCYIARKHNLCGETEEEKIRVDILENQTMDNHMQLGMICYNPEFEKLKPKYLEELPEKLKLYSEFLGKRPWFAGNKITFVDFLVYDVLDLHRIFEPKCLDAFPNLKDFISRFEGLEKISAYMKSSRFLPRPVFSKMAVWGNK
Put plainly: biochemical. Also on record: made in house; host or cells: E. coli. The settings on record: 25 μM pesticide; CDNB (1 mM)-GSH (2.5 mM) assay; mean of three assays, variation less than 5%; read-out: Inhibition (%). On the procedure:
(§1) Reduced GST assays were performed by monitoring the formation of the conjugate of CDNB (1 mM) with GSH (2.5 mM) at 340 nm (ε = 9.6 mM^−1cm^−1) for 120 s according to a published method. One unit of enzyme activity is defined as the amount of enzyme that produces 1 μmol of product per minute under the assay conditions.
Pesticide screening and inhibition potency evaluation towards hGSTM1-1 were carried out in the assay system described above in the presence of 25 μM pesticide diluted in acetone. During the assay, no measurable pesticide/GSH reaction was detected. The percentage of enzyme inhibition (I) was calculated using the following equation:%I = [(Ro − Ri)/Ro] × 100(3) where Ro is the unit of enzyme activity increase for the uninhibited reaction and Ri is the rate of increase for the inhibited reaction. Both Ri and Ro correspond to the same substrate concentration.

The target of test [2] is T1, hGSTM1-1. In words: Kinetic inhibition study with pirimicarb (Lineweaver-Burk and secondary plots). Also noted: made in house; host or cells: E. coli. The note with it: for Ki: Ki (binding to free enzyme). It is filed as biochemical. On the procedure:
Initial velocities for the catalyzed reaction of the isoenzyme hGSTM1-1 with GSH as a variable substrate were performed at 37 °C in a total volume of 1 mL mixture containing 0.75 μg of the isoenzyme GSTM1-1, 0.1 M potassium phosphate buffer (pH 6.5), 1 mM CDNB and different concentrations of GSH in the range of 0.0175–3.75 mM in the presence of different concentrations of the insecticide pirimicarb (0–40 μM). With CDNB as a variable substrate, the reaction mixture total volume (1 mL) contained 0.75 μg of the isoenzyme GSTM1-1, 0.1 M potassium phosphate buffer (pH 6.5), 1 mM GSH and CDNB in the concentration range of 0.015–1.5 mM in the presence of different concentrations of pirimicarb (0–30 μM). The kinetic parameters were determined using the computer program GraphPad Prism 7.

Test [3] has as its target T1, hGSTM1-1. Put plainly: biochemical. An excerpt:
Furthermore, the catalytic activity of hGSTM1-1 cannot be regained by extensive dialysis or gel filtration on Sephadex G-25. […] The Kapp calculated by inactivation experiments is in good agreement to that determined by kinetic inhibition analysis.
The rate of inactivation was followed by periodically removing samples for assays of enzymatic activity.

The target of test [4] is T1, hGSTM1-1. Put plainly: IC50 determination, concentration-response in CDNB-GSH assay. It is filed as biochemical. Also noted: made in house; host or cells: E. coli. As to the method:
as §1
[…]. The IC50 values were determined using the program GraphPad Prism (GraphPad Software Inc., Version 7, San Diego, CA, USA).

The mark [5] stands for this setting: GSH as variable substrate, 37 °C, pH 6.5.

Usually inhibition stands for the change of the read-out against control, counted positive when it falls. By Ki is commonly meant a measure of affinity in units of concentration, obtained from inhibition or displacement. A higher Ki goes with lower affinity. The Kd is the equilibrium constant for the complex coming apart. Read a high Kd as lower affinity. What is called IC50 is the midpoint of a concentration-inhibition curve. Turning to `Cc1nc(N(C)C)nc(OC(=O)N(C)C)c1C` [Pirimicarb, pirimicarb], the inhibition at 25 µM on hGSTM1-1 [1] came to 52.3%. Further, the “Ki' (binding to enzyme-CDNB complex)” value at hGSTM1-1 [2] (CDNB as variable substrate, 37 °C, pH 6.5, 1/Vmax app versus [Pirimicarb]) is 44.7 ± 1.14 µM. The Inhibition pattern result at hGSTM1-1 [2] (GSH as variable substrate) and at hGSTM1-1 [2] (towards CDNB) was “mixed-type inhibition” each time. In addition, the “Ki' (binding to enzyme-GSH complex)” value on hGSTM1-1 [2] (setting [5]) worked out at 35.97 ± 2.57 µM. The inhibitory constant (Ki) turned out to be 37.7 ± 1.03 µM at hGSTM1-1 [2] (CDNB as variable substrate, 37 °C, pH 6.5, Slope versus [Pirimicarb]) and 24.5 ± 2.86 µM at hGSTM1-1 [2] (setting [5]). This molecule also displayed a Kd on hGSTM1-1 [3] of 15.5 ± 1.2 µM. The “Effect on inactivation of hGSTM1-1 by GS-ESF” value at hGSTM1-1 [3] (pH 7.4) was “diminish the observed rate of enzyme inactivation”. It took 17.5 ± 1.75 µM to reach half-maximal inhibition against hGSTM1-1 [4] (IC50).

(Values after paper PMC8998827, “Ligandability Assessment of Human Glutathione Transferase M1-1 Using Pesticides as Chemical Probes” (International Journal of Molecular Sciences, 2022).)
